The subject of data set [1] is bicistronic HCV replicon (replicon RNA, GenBank Accession No. AJ242654). Put plainly: HCV Replicon Assay. Type of data set: cell-based. Particulars: Hepatitis C virus, 72 h, read-out: Replicon IC50.

Where only a bound is given, the exact number is not on record here.

As usually defined, the IC50 is the concentration that inhibits the measured activity by half. The melting point is the temperature, or range, at which the solid turns liquid.

Compound `C[C@H](NS(=O)(=O)c1cnc(-c2c(C#N)c3ccc(OC(F)F)cc3n2C2CCCC2)nc1)C1CC1` [compound 209, 2-[3-cyano-1-cyclopentyl-6-(difluoromethoxy)-1H-indol-2-yl]-N-[(1S)-1-cyclopropylethyl]pyrimidine-5-sulfonamide] had a melting point of 183 to 185 °C. Also, in data set [1], the IC50 is under 500 nM.
The like results for `Cc1ccc2c(c1F)c(C#N)c(-c1ccc(S(=O)(=O)NC(C)(C)C(F)(F)F)cn1)n2C1CCCC1` [compound 614, 6-(3-cyano-1-cyclopentyl-4-fluoro-5-methyl-1H-indol-2-yl)-N-(1,1,1-trifluoro-2-methylpropan-2-yl)pyridine-3-sulfonamide] were, in that order, 200 to 205 °C and 500 to 2000 nM.
For `Cc1ccc(-n2c(-c3ncc(S(=O)(=O)NC(C)C)cn3)c(C#N)c3cc(F)ccc32)cc1` [compound 357, 2-[3-cyano-5-fluoro-1-(4-methylphenyl)-1H-indol-2-yl]-N-(propan-2-yl)pyrimidine-5-sulfonamide], the melting point fell in the range of 200 to 202 °C. The half-inhibitory concentration (IC50) in data set [1] was under 500 nM.
In the case of `CC(C)NS(=O)(=O)c1cnc(-c2c(C(N)=O)c3ccc(OC(F)(F)F)cc3n2C2CCC2)nc1` [compound 781, 1-cyclobutyl-2-[5-(propan-2-ylsulfamoyl)pyrimidin-2-yl]-6-(trifluoromethoxy)-1H-indole-3-carboxamide], the melting point was 222 to 223 °C. In addition, the half-inhibitory concentration (IC50) in data set [1] was under 500 nM.
Compound `CC(C)(NS(=O)(=O)c1ccc(-c2c(C#N)c3ccc(OC(F)F)cc3n2-c2ncccn2)nc1)C(F)(F)F` [compound 663, 6-[3-cyano-6-(difluoromethoxy)-1-(pyrimidin-2-yl)-1H-indol-2-yl]-N-(1,1,1-trifluoro-2-methylpropan-2-yl)pyridine-3-sulfonamide] yielded a melting point of 179 to 180 °C. Also, the concentration for half-maximal inhibition (IC50) in data set [1] was 500 to 2000 nM.
Taken in the same sequence, the figures for `Cc1ccc2c(c1)c(C#N)c(-c1ccc(S(=O)(=O)N[C@H](C)C(F)(F)F)cn1)n2C1CCC1` [compound 484, 6-(3-cyano-1-cyclobutyl-5-methyl-1H-indol-2-yl)-N-[(2R)-1,1,1-trifluoropropan-2-yl]pyridine-3-sulfonamide] were 134 to 142 °C and under 500 nM.
`N#Cc1c(-c2ccc(S(=O)(=O)NC(CF)CF)cn2)n(C2CCC2)c2cc(C(F)F)ccc12` [compound 331, 6-[3-cyano-1-cyclobutyl-6-(difluoromethyl)-1H-indol-2-yl]-N-(1,3-difluoropropan-2-yl)pyridine-3-sulfonamide] returned a melting point of 217 to 222 °C. In addition, the IC50 in data set [1] was under 500 nM.
For `CCn1c(-c2ccc(N(CCO)S(=O)(=O)C3CC3)nc2)c(C#N)c2ccc(OC(C)C)cc21` [compound 293, N-{5-[3-cyano-1-ethyl-6-(propan-2-yloxy)-1H-indol-2-yl]pyridin-2-yl}-N-(2-hydroxyethyl)cyclopropanesulfonamide], the melting point was 212 to 214 °C. For the same compound, in data set [1], the IC50 lay within 500 to 2000 nM.
As for `Cc1ccc2c(C#N)c(-c3ncc(S(=O)(=O)N[C@@H](C)C(F)(F)F)cn3)n(C3CCCC3)c2c1` [compound 404, 2-(3-cyano-1-cyclopentyl-6-methyl-1H-indol-2-yl)-N-[(2S)-1,1,1-trifluoropropan-2-yl]pyrimidine-5-sulfonamide], the melting point was 223 to 224 °C. Besides, the IC50 in data set [1] is under 500 nM.
Take `CCc1cc2c(cc1F)c(C(N)=O)c(-c1ccc(S(=O)(=O)N[C@@H](C)C(F)(F)F)cn1)n2-c1ccc(C)cc1` [compound 1021, 6-ethyl-5-fluoro-1-(4-methylphenyl)-2-(5-{[(2S)-1,1,1-trifluoropropan-2-yl]sulfamoyl}pyridin-2-yl)-1H-indole-3-carboxamide]: the melting point was 228 to 233 °C. In addition, the 50% inhibitory concentration (IC50) in data set [1] was under 500 nM.
With `Cc1c(F)cc2c(c1F)c(C#N)c(-c1ccc(S(=O)(=O)N[C@@H](C)C(F)(F)F)cn1)n2C1CCCC1` [compound 559, 6-(3-cyano-1-cyclopentyl-4,6-difluoro-5-methyl-1H-indol-2-yl)-N-[(2S)-1,1,1-trifluoropropan-2-yl]pyridine-3-sulfonamide], the melting point was 218 to 224 °C. In addition, the 50% inhibitory concentration (IC50) in data set [1] is under 500 nM.
In turn, `Cc1cc2c(cc1F)c(C#N)c(-c1ccc(S(=O)(=O)N[C@@H](C)C(F)(F)F)cn1)n2-c1ccc(S(N)(=O)=O)s1` [compound 1034, 6-[3-cyano-5-fluoro-6-methyl-1-(5-sulfamoylthiophen-2-yl)-1H-indol-2-yl]-N-[(2S)-1,1,1-trifluoropropan-2-yl]pyridine-3-sulfonamide] yielded a melting point of 131.6 to 137.7 °C. In addition, the IC50 in data set [1] lay in the range of 500 to 2000 nM.
In turn, `CCc1cc2c(cc1F)c(C#N)c(-c1cc(C)c(S(=O)(=O)N[C@H](C)C(F)(F)F)cn1)n2-c1ncccn1` [compound 890, 6-[3-cyano-6-ethyl-5-fluoro-1-(pyrimidin-2-yl)-1H-indol-2-yl]-4-methyl-N-[(2R)-1,1,1-trifluoropropan-2-yl]pyridine-3-sulfonamide] had a melting point of 231 to 236 °C. Further, the 50% inhibitory concentration (IC50) in data set [1] was under 500 nM.
Taken in the same sequence, the figures for `Cc1ccc2c(C#N)c(-c3ccc(S(=O)(=O)NC(CF)CF)cn3)n(-c3ccccc3)c2c1` [compound 111, 6-(3-cyano-6-methyl-1-phenyl-1H-indol-2-yl)-N-(1,3-difluoropropan-2-yl)pyridine-3-sulfonamide] were 181 to 185 °C and under 500 nM.
The compound `Cc1ccc2c(C#N)c(-c3ccc(S(=O)(=O)NC(C)(C)C(F)(F)F)cn3)n(C3CCCC3)c2c1` [compound 371, 6-(3-cyano-1-cyclopentyl-6-methyl-1H-indol-2-yl)-N-(1,1,1-trifluoro-2-methylpropan-2-yl)pyridine-3-sulfonamide] returned a melting point of 202 to 211 °C. Further, the half-inhibitory concentration (IC50) in data set [1] was under 500 nM.
As to `CCc1ccc2c(C#N)c(-c3ccc(S(=O)(=O)N[C@H](C)C(F)(F)F)cn3)n(C3CCCC3)c2c1` [compound 311, 6-(3-cyano-1-cyclopentyl-6-ethyl-1H-indol-2-yl)-N-[(2R)-1,1,1-trifluoropropan-2-yl]pyridine-3-sulfonamide], the melting point is 185 to 186 °C. Further, in data set [1], the IC50 is under 500 nM.
On to `Cc1cc(F)c2c(C#N)c(-c3ccc(S(=O)(=O)NC4(C(F)(F)F)CC4)cn3)n(C3CCCC3)c2c1` [compound 628, 6-(3-cyano-1-cyclopentyl-4-fluoro-6-methyl-1H-indol-2-yl)-N-[1-(trifluoromethyl)cyclopropyl]pyridine-3-sulfonamide], for which the melting point was 242 to 246 °C. Further, the half-inhibitory concentration (IC50) in data set [1] is under 500 nM.
Compound `Cc1cc2c(cc1F)c(C#N)c(-c1ccc(S(=O)(=O)N[C@@H](C)C(F)(F)F)cn1)n2-c1cnccn1` [compound 817, 6-[3-cyano-5-fluoro-6-methyl-1-(pyrazin-2-yl)-1H-indol-2-yl]-N-[(2S)-1,1,1-trifluoropropan-2-yl]pyridine-3-sulfonamide] returned a melting point of 220 to 223 °C. For the same compound, in data set [1], the 50% inhibitory concentration (IC50) was under 500 nM.
Consider `CC(C)n1c(-c2ncc(S(=O)(=O)N[C@@H](C)C(F)(F)F)cn2)c(C#N)c2ccc(OC(F)F)cc21` [compound 399, 2-[3-cyano-6-(difluoromethoxy)-1-(propan-2-yl)-1H-indol-2-yl]-N-[(2S)-1,1,1-trifluoropropan-2-yl]pyrimidine-5-sulfonamide], for which the melting point lay in the range of 219 to 221 °C. Also, in data set [1], the IC50 is under 500 nM.
Taken in the same sequence, the figures for `Cc1cc2c(cc1F)c(C#N)c(-c1ncc(S(=O)(=O)NC(CF)CF)cn1)n2C1CCC1` [compound 146, 2-(3-cyano-1-cyclobutyl-5-fluoro-6-methyl-1H-indol-2-yl)-N-(1,3-difluoropropan-2-yl)pyrimidine-5-sulfonamide] were 243 to 249 °C and under 500 nM.
Compound `C[C@H](NS(=O)(=O)c1ccc(-c2c(C(=O)O)c3cc(F)ccc3n2C2CCCCC2)nc1)C(F)(F)F` [compound 741, 1-cyclohexyl-5-fluoro-2-(5-{[(2S)-1,1,1-trifluoropropan-2-yl]sulfamoyl}pyridin-2-yl)-1H-indole-3-carboxylic acid] showed a melting point of 216 to 220 °C. The IC50 in data set [1] is 500 to 2000 nM.
On to `CC[C@H](NS(=O)(=O)c1ccc(-c2c(C#N)c3cc(F)c(C)cc3n2C2CCC2)nc1)C(F)(F)F` [compound 826, 6-(3-cyano-1-cyclobutyl-5-fluoro-6-methyl-1H-indol-2-yl)-N-[(2S)-1,1,1-trifluorobutan-2-yl]pyridine-3-sulfonamide], for which the melting point was in the range of 212 to 217 °C. Further, the IC50 in data set [1] is under 500 nM.
Taken in the same sequence, the figures for `C[C@H](NS(=O)(=O)c1ccc(-c2c(C#N)c3ccc(OC(F)(F)F)cc3n2C2CCCC2)nc1)C(F)(F)F` [compound 358, 6-[3-cyano-1-cyclopentyl-6-(trifluoromethoxy)-1H-indol-2-yl]-N-[(2S)-1,1,1-trifluoropropan-2-yl]pyridine-3-sulfonamide] were 168 to 170 °C and under 500 nM.
In turn, `COc1ccc2c(C#N)c(-c3ccc(S(=O)(=O)N[C@H](C)C(F)(F)F)cn3)n(C3CCCCC3)c2c1` [compound 518, 6-(3-cyano-1-cyclohexyl-6-methoxy-1H-indol-2-yl)-N-[(2R)-1,1,1-trifluoropropan-2-yl]-pyridine-3-sulfonamide] displayed a melting point of 198 to 204 °C. The IC50 in data set [1] is under 500 nM.
The like results for `Cc1ccc2c(c1)c(C#N)c(-c1ccc(S(=O)(=O)N[C@@H](C)C(F)(F)F)cn1)n2-c1ccccn1` [compound 503, 6-[3-cyano-5-methyl-1-(pyridin-2-yl)-1H-indol-2-yl]-N-[(2S)-1,1,1-trifluoropropan-2-yl]pyridine-3-sulfonamide] were, in that order, 165 to 167 °C and 500 to 2000 nM.
Turning to `C[C@H](NS(=O)(=O)c1cnc(-c2c(C#N)c3cc(C#N)ccc3n2C2CCCC2)nc1)C(F)(F)F` [compound 392, 2-(3,5-dicyano-1-cyclopentyl-1H-indol-2-yl)-N-[(2S)-1,1,1-trifluoropropan-2-yl]pyrimidine-5-sulfonamide], the melting point is 250 to 254 °C. Besides, in data set [1], the half-maximal inhibitory concentration (IC50) is under 500 nM.

(Values after patent publication US8735414B2 (priority 2009, dated 2014).)
